Results published in patent US20250275539A1, “APYRASE INHIBITORS” (Texas Crop Science, Inc., priority 2024, published 2025).
Where two headings read alike, the source gives them in different places.

What was measured:
[1] = system: Amaranthus retroflexus (pigweed); experiment: Enhancement of herbicide activity: pre-emergence Amaranthus kill with metribuzin; format: in vivo; conditions: for pest or weed control at 100 g/ha: Amaranthus retroflexus
Procedure: Specifically, Amaranthus retroflexus (pigweed) was treated pre-emergence with metribuzin alone or in combination with an enhancer compound disclosed herein. Fifteen seeds of Amaranthus retroflexus were sown in soil in each pot and then sprayed with a mixture of metribuzin at the appropriate rate shown in Table 5 and the compound of this invention at 100 g/ha using a track sprayer at a water volume of 200 L/hectare. Small amounts of acetone were used to aid solubility. The pots were watered immediately after sowing and treatment and then allowed to stand in a glasshouse. Assessment of kill was made seven and fourteen days after treatment. The test included four replicates for each treatment and the control.

apyrase = experiment: Apyrase inhibition assay (screen for apyrase inhibitors, phosphate release read at 630 nm); format: biochemical; conditions: inhibitor conc at 1 mM (10 μl added), 3 mM ATP, pH 6.5, room temperature 1 hr
[2] = system: Brown Rust (Puccinia recondita) on wheat; experiment: Greenhouse crop test: control of Brown Rust on wheat in combination with commercial fungicides; format: in vivo; conditions: wheat JB Diego, inoculated 24 hours after treatment, evaluated at fourteen days
Procedure: In this method, exemplary compounds were evaluated for their ability to control Brown Rust (Puccinia recondita) on wheat in a controlled greenhouse environment in combination with one of four fungicides, Amistar, Imtrex, Proline or Balaya. In these studies, wheat plants (JB Diego) were used. Seeds were sown in 9 cm diameter pots to a depth of 1 to 2 cm using Petersfield potting compost (75% medium grade peat, 12% screened sterilized loam, 3% medium grade vermiculite, 10% grit (5 mm screened, lime free), 1.5 kg PG mix per m3, lime to pH5.5-6.0 and wetting agent (Vitax Ultrawet 200 ml per m3) and germinated/grown at 23 C under a 16 h day/8 h night light regime. Plants were treated two to three weeks after sowing when they were at the BBCH 11 growth stage ([…]). Wheat plants were inoculated with Puccinia triticina (Brown rust) 24 hours after treatment. A track sprayer was used to treat the plants with the mixture of commercial fungicide and test compound using a water volume of 200 L/ha. Four replicates were used for each combination of fungicide, pathogen and test compound. Each plant was evaluated at fourteen days (once the disease symptoms were fully expressed) for % control of the disease. Appropriate controls were used for all experiments, including an ‘inoculation check’ wherein plants were inoculated with their specific pathogen to assess disease levels. Also, each commercial fungicide was tested on its own as a part of each treatment, this being benchmark against which the experimental compounds were evaluated. […] That is, the present compounds, although not fungicidal by themselves, enhance the activity of fungicides, thus the enhancer compounds work synergistically in combination with fungicides to control disease. • Amistar (0.04 L/ha) • Imtrex (0.45 L/ha) • Proline (0.15 L/ha) • Balaya (0.25 L/ha)

[3] = system: strain of Zymoseptoria tritici with a reduced susceptibility to strobilurin fungicides; experiment: In vitro assessment of combination activity with fungicides, pathogen growing on agar; format: cell-based; conditions: in combination with azoxystrobin, fluxapyroxad or desthio prothioconazole
Procedure: (§1) Selected compounds are assessed in combination with fungicides against a range of commercially important plant pathogenic fungi.
(§2) The test is conducted as follows. A fungicide is applied to a fungal plant pathogen at a rate slightly below that at which it gave any control, in combination with a suitable dose of the test compound. The test compounds are recorded as active if control of the pathogen was observed.
(§3) In more detail, the test is conducted as follows. For each combination of fungicide, pathogen and test compound, the following wells are used. Well 1 contains a fungal pathogen growing on agar, and a fungicide at a rate just below that at which it gave any control of the pathogen. Well 2 is the same as Well 1, except that the test compound is also added at Rate 1. Well 3 is the same as Well 2, except that the test compound is added at Rate 2, where Rate 2 is higher than Rate 1. Finally, as a benchmark, Well 4 is the same as Well 1, except that it contained the fungicide at a higher rate, at which it gave partial control of the pathogen. Each of the Wells 1 to 4 are run in duplicate, giving a total of 8 wells for each combination of fungicide, pathogen and test compound. For each well, after a suitable period of incubation, a visual assessment of the % control of the pathogen by the fungicide is made.
(§4) The following fungicides are used in this assay: azoxystrobin, fluxapyroxad, and desthio prothioconazole. The following fungal pathogens are used in this assay: First, a strain of Zymoseptoria tritici with a reduced susceptibility to strobilurin fungicides; second a strain of Zymoseptoria tritici with a reduced susceptibility to SDHI fungicides (i.e., those that inhibit succinate dehydrogenase); and third, Microdochium nivale. […] In contrast, compounds of the present disclosure are effective in the combination assay, enhancing fungicidal activity of one or more fungicides against at least one strain.

Microdochium nivale = experiment: as above; format: cell-based; conditions: in combination with azoxystrobin at a rate just below that giving control; visual % control
Procedure: as §1, §2, §3, §4

[4] = system: strain of Zymoseptoria tritici with a reduced susceptibility to SDHI fungicides; experiment: as above; format: cell-based; conditions: in combination with azoxystrobin, fluxapyroxad or desthio prothioconazole
Procedure: as §1, §2, §3, §4

Structure (SMILES)	pest or weed control at 100 g/ha ([1]; 168 h, read-out: Pre-Emergence Amaranthus Kill Percentage, Assessed 7 DAT, Metribuzin rate 50 g/ha)	pest or weed control at 100 g/ha ([1]; 168 h, read-out: Pre-Emergence Amaranthus Kill Percentage, Assessed 7 DAT, Metribuzin rate 100 g/ha)	pest or weed control at 100 g/ha ([1]; 168 h, read-out: Pre-Emergence Amaranthus Kill Percentage, Assessed 7 DAT, Metribuzin rate 200 g/ha)	pest or weed control at 100 g/ha ([1]; 336 h, read-out: Pre-Emergence Amaranthus Kill Percentage, Assessed 14 DAT, Metribuzin rate 50 g/ha)	pest or weed control at 100 g/ha ([1]; 336 h, read-out: Pre-Emergence Amaranthus Kill Percentage, Assessed 14 DAT, Metribuzin rate 100 g/ha)	pest or weed control at 100 g/ha ([1]; 336 h, read-out: Pre-Emergence Amaranthus Kill Percentage, Assessed 14 DAT, Metribuzin rate 200 g/ha)	enhancement of metribuzin herbicidal activity ([1]; compound at 100 g/ha with metribuzin, at seven and fourteen days)	Inhibition (apyrase)	Amistar (% control of the disease, compound + fungicide) ([2]; with Amistar 0.04 L/ha)	Balaya (% control of the disease, compound + fungicide) ([2]; with Balaya 0.25 L/ha)	Imtrex (% control of the disease, compound + fungicide) ([2]; with Imtrex 0.45 L/ha)	Proline (% control of the disease, compound + fungicide) ([2]; with Proline 0.15 L/ha)	enhancement of fungicide activity against Zymoseptoria tritici strain (reduced susceptibility to strobilurin fungicides) [3]	enhancing the activity of azoxystrobin against Microdochium nivale (Microdochium nivale)	enhancement of fungicide activity against Zymoseptoria tritici strain (reduced susceptibility to SDHI fungicides) [4]
Cc1ccc(C(=O)N(C)C)cc1NS(=O)(=O)c1ccc(-c2ccccc2)cc1 [Compound A-108, 3-([1,1′-biphenyl]-4-sulfonamido)-N,N,4-trimethylbenzamide]	6.3%	76.5%	100%	13.5%	78.8%	100%	significant enhancement	A (A is inhibition above 30%)	92.1%	31.7%	40.5%	−1.2%	–	–	–
O=C(Nc1cccc([N+](=O)[O-])c1)c1cccc(S(=O)(=O)Nc2ccc(Br)cc2)c1 [Roux Compound 13]	–	–	–	–	–	–	–	–	–	–	–	–	failing to enhance activity of any fungicide	exhibited activity	failing to enhance activity of any fungicide
